Measured values from PubChem BioAssay AID1918994 (Molecular Pharmacology Branch, DTP, NCI, 2023).

Test system: 292921-168-R-J2-PDC complex spheroid growth
Test: Anticancer human tumor 292921-168-R-J2-PDC patient-derived pancreatic carcinoma cell line growth inhibition [AhR]
Conditions: for IC50: curve of first compound; for viability, T/C: stronger effect = lower value
Method in brief: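 Spheroids combined tumor cells with HUVEC endothelial cells and human MSCs as stroma. AhR antagonists were paired with standard or investigational drugs, each dosed in half-log steps down from near clinical Cmax, or from 10 microM where Cmax was unknown.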
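Note: spheroids exposed to compounds for seven days after three days of growth.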

Question: How did the IC50 (second compound 0.1 µM) turn out when `CC1COCCN1c1cc(C2(S(C)(=N)=O)CC2)nc(-c2ccnc3[nH]ccc23)n1` (stereo not given) + Cc1cncc(-c2nc(NCCc3c[nH]c4ccccc34)c3ncn(C(C)C)c3n2)c1 was run?
Answer: The IC50 was 3.61 µM.

Question: And the IC50 (second compound 0.316 µM)?
Answer: Its IC50 is 3 µM.

Question: What about the IC50 (second compound 1 µM) of the same compound?
Answer: The IC50 was 2.58 µM.

Question: What about the IC50 (second compound 3.16 µM) of the same compound?
Answer: The IC50 was 1.94 µM.

Question: And the IC50 (second compound 10 µM)?
Answer: The IC50 was 0.0316 µM.

Question: And the viability, T/C (second compound 0.1 µM, first compound 0.0316 µM)?
Answer: Its viability, T/C is 89.8%.

Question: And the viability, T/C (second compound 0.1 µM, first compound 0.1 µM)?
Answer: The viability, T/C was 87.6%.

Question: What about the viability, T/C (second compound 0.1 µM, first compound 0.316 µM) of the same compound?
Answer: The viability, T/C was 95.8%.

Question: And the viability, T/C (second compound 0.1 µM, first compound 1 µM)?
Answer: The viability, T/C was 76.9%.

Question: And the viability, T/C (second compound 0.1 µM, first compound 3.16 µM)?
Answer: The viability, T/C was 54.2%.

Question: What about the viability, T/C (second compound 0.1 µM, first compound 10 µM) of the same compound?
Answer: Its viability, T/C is 24.7%.

Question: And the viability, T/C (second compound 0.316 µM, first compound 0.0316 µM)?
Answer: Its viability, T/C is 86.5%.

Question: What about the viability, T/C (second compound 0.316 µM, first compound 0.1 µM) of the same compound?
Answer: Its viability, T/C is 80.5%.

Question: What about the viability, T/C (second compound 0.316 µM, first compound 0.316 µM) of the same compound?
Answer: Its viability, T/C is 73.3%.

Question: And the viability, T/C (second compound 0.316 µM, first compound 1 µM)?
Answer: The viability, T/C was 80.2%.

Question: What about the viability, T/C (second compound 0.316 µM, first compound 3.16 µM) of the same compound?
Answer: Its viability, T/C is 48.6%.

Question: What about the viability, T/C (second compound 0.316 µM, first compound 10 µM) of the same compound?
Answer: Its viability, T/C is 24.7%.

Question: What about the viability, T/C (second compound 1 µM, first compound 0.0316 µM) of the same compound?
Answer: Its viability, T/C is 77.2%.

Question: And the viability, T/C (second compound 1 µM, first compound 0.1 µM)?
Answer: Its viability, T/C is 80.6%.

Question: And the viability, T/C (second compound 1 µM, first compound 0.316 µM)?
Answer: The viability, T/C was 88.4%.

Question: And the viability, T/C (second compound 1 µM, first compound 1 µM)?
Answer: The viability, T/C was 70%.

Question: What about the viability, T/C (second compound 1 µM, first compound 3.16 µM) of the same compound?
Answer: Its viability, T/C is 45.9%.

Question: What about the viability, T/C (second compound 1 µM, first compound 10 µM) of the same compound?
Answer: Its viability, T/C is 24.5%.

Question: And the viability, T/C (second compound 3.16 µM, first compound 0.0316 µM)?
Answer: Its viability, T/C is 63.3%.

Question: And the viability, T/C (second compound 3.16 µM, first compound 0.1 µM)?
Answer: The viability, T/C was 63.3%.

Question: And the viability, T/C (second compound 3.16 µM, first compound 0.316 µM)?
Answer: The viability, T/C was 66.9%.

Question: And the viability, T/C (second compound 3.16 µM, first compound 1 µM)?
Answer: Its viability, T/C is 59.6%.

Question: What about the viability, T/C (second compound 3.16 µM, first compound 3.16 µM) of the same compound?
Answer: The viability, T/C was 42.6%.

Question: And the viability, T/C (second compound 3.16 µM, first compound 10 µM)?
Answer: The viability, T/C was 25.4%.

Question: What about the viability, T/C (second compound 10 µM, first compound 0.0316 µM) of the same compound?
Answer: Its viability, T/C is 48.6%.

Question: What about the viability, T/C (second compound 10 µM, first compound 0.1 µM) of the same compound?
Answer: Its viability, T/C is 45.9%.

Question: What about the viability, T/C (second compound 10 µM, first compound 0.316 µM) of the same compound?
Answer: Its viability, T/C is 50%.

Question: What about the viability, T/C (second compound 10 µM, first compound 1 µM) of the same compound?
Answer: The viability, T/C was 50.4%.

Question: And the viability, T/C (second compound 10 µM, first compound 3.16 µM)?
Answer: Its viability, T/C is 38.8%.

Question: And the viability, T/C (second compound 10 µM, first compound 10 µM)?
Answer: Its viability, T/C is 29.4%.

Question: Which results are given for `CCN(c1cc(-c2ccc(CN3CCOCC3)cc2)cc(C(=O)NCc2c(C)cc(C)[nH]c2=O)c1C)C1CCOCC1` + Cc1cncc(-c2nc(NCCc3c[nH]c4ccccc34)c3ncn(C(C)C)c3n2)c1?
Answer: IC50 (second compound 0.1 µM): > 3 µM; IC50 (second compound 0.316 µM): > 3 µM; IC50 (second compound 1 µM): > 3 µM; IC50 (second compound 3.16 µM): > 3 µM; IC50 (second compound 10 µM): 0.034 µM; viability, T/C (second compound 0.1 µM, first compound 0.00949 µM): 93.8%; viability, T/C (second compound 0.1 µM, first compound 0.03 µM): 94.5%; viability, T/C (second compound 0.1 µM, first compound 0.0949 µM): 92.7%; viability, T/C (second compound 0.1 µM, first compound 0.3 µM): 84.9%; viability, T/C (second compound 0.1 µM, first compound 0.949 µM): 82.7%; viability, T/C (second compound 0.1 µM, first compound 3 µM): 67.3%; viability, T/C (second compound 0.316 µM, first compound 0.00949 µM): 94.7%; viability, T/C (second compound 0.316 µM, first compound 0.03 µM): 91.1%; viability, T/C (second compound 0.316 µM, first compound 0.0949 µM): 90%; viability, T/C (second compound 0.316 µM, first compound 0.3 µM): 77.6%; viability, T/C (second compound 0.316 µM, first compound 0.949 µM): 78.5%; viability, T/C (second compound 0.316 µM, first compound 3 µM): 83.3%; viability, T/C (second compound 1 µM, first compound 0.00949 µM): 87.2%; viability, T/C (second compound 1 µM, first compound 0.03 µM): 88.8%; viability, T/C (second compound 1 µM, first compound 0.0949 µM): 84.9%; viability, T/C (second compound 1 µM, first compound 0.3 µM): 76.4%; viability, T/C (second compound 1 µM, first compound 0.949 µM): 75.4%; viability, T/C (second compound 1 µM, first compound 3 µM): 75.8%; viability, T/C (second compound 3.16 µM, first compound 0.00949 µM): 64.4%; viability, T/C (second compound 3.16 µM, first compound 0.03 µM): 66.7%; viability, T/C (second compound 3.16 µM, first compound 0.0949 µM): 73.2%; viability, T/C (second compound 3.16 µM, first compound 0.3 µM): 64.2%; viability, T/C (second compound 3.16 µM, first compound 0.949 µM): 62.8%; viability, T/C (second compound 3.16 µM, first compound 3 µM): 52.7%; viability, T/C (second compound 10 µM, first compound 0.00949 µM): 49.2%; viability, T/C (second compound 10 µM, first compound 0.03 µM): 49.6%; viability, T/C (second compound 10 µM, first compound 0.0949 µM): 52.7%; viability, T/C (second compound 10 µM, first compound 0.3 µM): 49.3%; viability, T/C (second compound 10 µM, first compound 0.949 µM): 41.1%; viability, T/C (second compound 10 µM, first compound 3 µM): 45.3%
